Data as given in ChEMBL document CHEMBL3045856, “Synthesis antimicrobial and anticancer activity of N-arylmethylidene-piperazine-1-carbothiohydrazide” (Med Chem Res, 2013).

How the values were obtained:
[1] = tested on: Staphylococcus aureus; test: Antimicrobial activity against Staphylococcus aureus NCIM 2079 assessed as growth inhibition after 24 hr by serial double dilution method; format: functional, organism-based; settings: NCIM 2079, 24 h
[2] = tested on: Candida albicans; test: Antimicrobial activity against Candida albicans assessed as growth inhibition after 24 hr by serial double dilution method; format: functional, organism-based
[3] = tested on: HL-60; test: Anticancer activity against Homo sapiens (human) HL60 cells after 48 hr by CC108 microcell counter analysis; format: functional, cell-based; settings: HL-60, 48 h
[4] = tested on: Vibrio cholerae; test: Antimicrobial activity against Vibrio cholerae assessed as growth inhibition after 24 hr by cup-plate method; format: functional, organism-based
[5] = tested on: Bacillus subtilis; test: Antimicrobial activity against Bacillus subtilis NCIM 2921 assessed as growth inhibition after 24 hr by serial double dilution method; format: functional, organism-based; settings: NCIM 2921, 24 h
[6] = tested on: Pseudomonas aeruginosa; test: Antimicrobial activity against Pseudomonas aeruginosa NCIM 2967 assessed as growth inhibition after 24 hr by serial double dilution method; format: functional, organism-based; settings: NCIM 2967, 24 h
[7] = tested on: HBL-100; test: Anticancer activity against Homo sapiens (human) HBL100 cells after 72 hr by MTT assay; format: functional, cell-based; settings: HBL-100, 72 h
[8] = tested on: HBL-100; test: Ratio of compound IC50 to methotrexate IC50 for Homo sapiens (human) HBL100 cells after 72 hr by MTT assay; format: functional
[9] = tested on: Escherichia coli; test: Antimicrobial activity against Escherichia coli NCIM 2068 assessed as growth inhibition after 24 hr by serial double dilution method; format: functional, organism-based; settings: NCIM 2068, 24 h
[10] = tested on: Aspergillus niger; test: Antimicrobial activity against Aspergillus niger assessed as growth inhibition after 24 hr by cup plate method; format: functional, organism-based

SMILES	IC50 [1] [nM]	IC50 ([2]; read-out: IC50) [nM]	IC50 [3] [nM]	IC50 [4] [nM]	IC50 ([5]; read-out: IC50) [nM]	IC50 [6] [nM]	IC50 [7] [nM]	Ratio IC50 [8]	IC50 [9] [nM]	IC50 [10] [nM]	IC50 [5] [nM]	IC50 [2] [nM]
Oc1ccc(/C=N/NC(=S)N2CCNCC2)cc1	1700	1940	50000	1660	1620	1630	180	4.5	1640	1970	–	–
C/C(=N\NC(=S)N1CCNCC1)c1ccc(O)cc1	1580	2560	60000	1590	3490	3510	540	–	3480	3550	–	–
C/C(=N\NC(=S)N1CCNCC1)c1cccc([N+](=O)[O-])c1	860	2000	62000	860	320	600	990	–	570	1560	–	–
COc1ccc(/C=N/NC(=S)N2CCNCC2)cc1	790	2150	–	1530	660	1570	1620	–	1590	2090	–	–
S=C(N/N=C/c1ccc(Cl)cc1)N1CCNCC1	540	1850	69000	600	130	600	1600	–	1520	2140	–	–
C/C(=N/NC(=S)N1CCNCC1)c1ccccc1	2070	3750	–	1170	1780	2110	290	–	1760	3760	–	–
S=C(N/N=C/c1ccccc1)N1CCNCC1	1360	1850	63000	2230	930	1970	2410	–	3910	2210	–	–
C/C(=N\NC(=S)N1CCNCC1)c1ccc(Cl)cc1	1040	3370	–	780	980	710	260	–	880	3320	–	–
Cc1ccc(/C=N/NC(=S)N2CCNCC2)cc1	1660	3720	70000	3570	1700	1700	800	–	1740	3790	–	–
S=C(NN=C(c1ccccc1)c1ccccc1)N1CCNCC1	1330	1470	–	1380	1380	1440	340	–	3030	1620	–	–
O=C(O)c1cn(C2CC2)c2cc(N3CCNCC3)c(F)cc2c1=O [CIPROFLOXACIN]	1200	–	–	200	–	50	–	–	–	–	4700	–
OC(Cn1cncn1)(Cn1cncn1)c1ccc(F)cc1F [FLUCONAZOLE]	–	–	–	–	–	–	–	–	–	> 10000	–	980
CN(Cc1cnc2nc(N)nc(N)c2n1)c1ccc(C(=O)N[C@@H](CCC(=O)O)C(=O)O)cc1 [METHOTREXATE]	–	–	–	–	–	–	40	–	–	–	–	–
